According to US8420653B2, “Pyrimidine compounds and their uses” (Orchid Chemicals & Pharmaceuticals Limited, priority 2008, dated 2013):

Key:
TNF-α [1] = assay: In vitro measurement of TNF-α in human PBMC; type: cell-based
Protocol: In Vitro Measurement of TNF-α in Human Peripheral Blood Mononuclear Cells
This assay determines the effect of test compounds on the production of TNF a in human Peripheral Blood Mononuclear Cells (PBMC). Compounds were tested for their ability to inhibit the activity of TNF α in human PBMC. PBMC were isolated from blood (of healthy volunteers) using BD Vacutainer CPT™ (Cell preparation tube, BD Bio Science) and suspended in RPMI medium (Physiol. Res. 52, 593-598, 2003). The test compounds were pre-incubated with PBMC (0.5 million/incubation well) for 15 minutes at 37° C. and then stimulated with Lipopolysaccharide (Escherichia coli: B4; 1 μg/ml) for 18 hours at 37° C. in 5% CO2. The levels of TNF-α in the cell culture medium were estimated using enzyme-linked immunosorbent assay performed in a 96 well format as per the procedure of the manufacturer (Cayman Chemical, Ann Arbor, USA).

TNF-α [2] = assay: In vitro measurement of TNF-α in human whole blood; type: cell-based
Protocol: In Vitro Measurement of TNF-α in Human Whole Blood
This assay determines the effect of test compounds on the production of TNF-α in human whole blood. Compounds were tested for their ability to inhibit the activity of TNF-α in whole blood.
Heparanised blood from a healthy human volunteer was collected and diluted with RPMI 1640 incomplete medium (1:5 dilution). Diluted blood was aliquoted into 96 well plate 170 ul/well immediately. 20 ul of the drug of different concentrations was added to the respective wells with a control. The plate was incubated in 37° C. thermo mixer at 400 rpm for 60-70 minutes. After the incubation 10 ul of the LPS (from E. coli B4) was added to get the final concentration of 1 ug/well. The plate was again incubated in the 37° C. thermo mixer at 400 rpm 120 minutes in the thermo mixer and then left in the 37° C. CO2 incubator for two more hours so that the total stimulation time is four hours. The plasma was collected carefully without disturbing the pellet at the bottom and stored at −20° C. Then TNF-α levels were estimated using the R&D systems ELISA kit duoset kit (DY210).

TNF-α [3] = assay: LPS induced sepsis for measurement of TNF-α inhibition in mice; type: in vivo; conditions: Mus musculus; TNF alpha inhibition in mice sepsis model
Protocol: LPS Induced Sepsis for Measurement of TNF-α Inhibition in Mice
The LPS induced sepsis model in mice was performed as described by Les sekut et al (J Lab Clin Med 1994; 124, 813-20). Female Swiss albino mice were selected and the body weights were equivalent within each group. The mice were fasted for 20 hours with free access to water. The mice were dosed orally with the test compound suspended in vehicle containing 0.5% Tween 80 in 0.25% Carboxy-methylcellulose sodium salt. The control mice were administered the vehicle alone. After 30 minutes of oral dosing, mice were injected with 500 μg of Lipopolysaccharide (Escherichia coli, LPS: B4 from Siga) in phosphate buffer saline solution into the intraperitoneal cavity of the mice. After 90 minutes of LPS administration mice were bled via retro-orbital sinus puncture. Blood samples were stored overnight at 4° C. Serum samples were collected by centrifuging the samples at 4000 rpm for 15 minutes at 4° C. Immediately the serum samples were analyzed for TNF-α levels using commercially available mouse TNF-α ELISA kit (Amersham Biosciences) and assay was performed by the manufacturer instruction.
ED50 Measurement of TNF Alpha Inhibition in Mice Sepsis Model

TPA induced dermatitis = assay: Psoriasis model, TPA induced dermatitis; type: in vivo; conditions: mice, topical on the ears
Protocol: Inhibitory Activity in Psoriasis Model TPA induced dermatitis in mice was performed using the protocol described in Eur J Pharmacol 507, 253-259, 2005. Balb/c mice were acclimatized to laboratory conditions 5-7 days prior to the start of the experiment. They were randomly distributed to various groups based on body weight. The baseline ear thickness of the animal's both ears using thickness gauge was measured. For each animal 20 μl of that contains 2.5 μg of TPA was applied with help of micropipettor with disposable tips. Test compound was applied topically to both inner and outer surface of the both the ears i.e. left and right ear with acetone as control after 30 minutes 6 hours and 24 hours after application of TPA (20 μl). Ear thickness was measured after 6 and 24 hours in animals, while for ear weight ears were excised under anesthesia and weighed.

LPS induced neutrophilia = LPS induced neutrophilia model for asthma and COPD; type: in vivo; conditions: Wistar rats, BAL 4 h after LPS
Protocol: LPS Induced Neutrophilia Model for Asthma and COPD LPS induced neutrophilia in Wistar rats was performed using the protocol described in Pulm Pharmacol & Ther 17, 3, 133-140, 2004. Male Wistar rats were acclimatized to laboratory conditions five to seven days prior to the start of the experiment. They were randomly distributed to various groups based on body weight. Except normal group all the animals were exposed to LPS 100 μg/ml for 40 min. The rats were dosed with the test compound suspended in the vehicle containing 0.25% carboxymethylcellulose before half an hour of LPS exposure. BAL was performed 4 h after LPS exposure, total cell count and DLC was done and compared with control and the standard drug. Percentage Inhibition for neutrophilia was calculated.

PDE4 = PDE4 activity (source human U937 cells); type: biochemical; conditions: read-out: PDE4 inhibition IC50 (nm)
Protocol: PDE4 inhibition was measured by following a literature assay procedure (Cortizo J et al., Br J. Pharmacol., 1993, 108: 562-568. The assay method involves the following conditions.
Substrate: 1.01 μM [^3H] camp+camp
Pre-Incubation Time/Temperature: 15 minutes at 25° C.
Incubation Time/Temperature. 20 minutes at 25° C.
Incubation buffer: 50 mM Tris-HCl, pH 7.5, 5 mM MgCl2
Quantitation method: Quantitation of [^3H] Adenosine
Significance criteria: ≧50% of max stimulation or inhibition

PDE4B enzyme = biological target: T1, PDE4B enzyme (Homo sapiens, UniProt Q07343); assay: PDE4 assay with pure PDE4B enzyme (Calbiochem); type: biochemical
T1 construct: purchased Calbiochem
T1 sequence (Q07343 whole entry, species assumed): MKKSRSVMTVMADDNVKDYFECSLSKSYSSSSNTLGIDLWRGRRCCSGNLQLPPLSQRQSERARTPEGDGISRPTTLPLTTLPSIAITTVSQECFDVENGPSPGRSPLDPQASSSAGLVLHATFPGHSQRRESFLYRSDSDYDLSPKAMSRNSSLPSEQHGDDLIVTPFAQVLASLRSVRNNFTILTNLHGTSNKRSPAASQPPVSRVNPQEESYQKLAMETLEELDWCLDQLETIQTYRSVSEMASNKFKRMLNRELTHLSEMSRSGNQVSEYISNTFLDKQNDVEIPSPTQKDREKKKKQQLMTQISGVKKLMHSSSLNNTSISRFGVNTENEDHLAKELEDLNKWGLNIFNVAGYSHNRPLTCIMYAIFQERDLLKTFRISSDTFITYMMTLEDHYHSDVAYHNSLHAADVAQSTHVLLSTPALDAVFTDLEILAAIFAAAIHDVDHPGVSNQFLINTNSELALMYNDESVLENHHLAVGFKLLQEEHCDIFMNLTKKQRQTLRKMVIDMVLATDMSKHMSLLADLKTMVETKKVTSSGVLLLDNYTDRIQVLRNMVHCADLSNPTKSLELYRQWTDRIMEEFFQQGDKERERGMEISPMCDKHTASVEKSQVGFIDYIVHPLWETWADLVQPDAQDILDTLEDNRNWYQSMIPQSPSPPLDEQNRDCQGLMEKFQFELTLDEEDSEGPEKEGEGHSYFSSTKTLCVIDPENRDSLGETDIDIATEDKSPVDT

IC50 (PDE4): 7 nM
inhibition at 10 µM (PDE4B enzyme): 76.1%
Structure (SMILES): NS(=O)(=O)c1cccc(-c2c(-c3ccccc3)nc(C(F)(F)F)nc2N2CCOCC2)c1 [Example 98, 3-[4-Morpholin-4-yl-2-(trifluoromethyl)-6-phenyl-pyrimidin-5-yl]benzenesulfonamide]
inhibition at 1 µM (TNF-α [1]; Conc. (1 μM)): 94.1%
inhibition at 10 µM (TNF-α [1]; Conc. (10 μM)): 94.6%
inhibition at 1 µM (TNF-α [2]; Conc. (1 μM)): 40.6%
inhibition at 10 µM (TNF-α [2]; Conc. (10 μM)): 62%
ED50 (TNF-α [3]): 0.01 mg/kg
Psoriasis-acute TPA induced dermatitis % inhibition Ear Wt (TPA induced dermatitis): 11.84%
Psoriasis-acute TPA induced dermatitis % inhibition Ear thickness (TPA induced dermatitis): 41.10%
LPS induced neutrophilia % inhibition at 10 mg/kg (LPS induced neutrophilia): 31.73%
